The subject of one assay is Jurkat cells. Description: Cellular cytotoxicity assay using various apoptosis/caspase activity markers and protease indicators. Type of assay: cell-based, human. As to conditions: indicator used for read-out, E:T 5 to 1.
Another assay concerns EL4 cells. Kind of assay: Flow-cytometry fluorescence cellular cytotoxicity (FCC) assay, CTL killing of peptide-pulsed target cells. Type of assay: cell-based, mouse.

Consider “Bis-(N-CBZ-aspartyl-glutamyl-valyl-aspartylamide) Rhodamine 110 [Bis-(N-CBZ-DEVD amide)R22120]”, for which the “% Killing” value in the assay with Jurkat cells (co-incubation 1 hr) is 48.0%; with Jurkat cells (co-incubation 1 hr, listed as bis-(Z-DEVDamide)-Rhodamine 110) it was “markedly lower than the other two protease indicators”; with Jurkat cells (co-incubation 2 hr) it was 75.4%.

For “MT246-256: irrelevant control polyoma virus peptide middle T protein epitope (SNPTYSVM, SEQ ID NO:22) (Synthetic peptide substrate.)”, in the assay with EL4 cells, the “% of the target cells (CTO+) positive for DEVDase activity” value was “around 10%”.

B1: PE-labeled Annexin V: phycoerythrin labeled annexin V, cell surface marker of apoptosis (protein, UniProt P08758 2-320, looked up)
Annexin A5: AQVLRGTVTDFPGFDERADAETLRKAMKGLGTDEESILTLLTSRSNAQRQEISAAFKTLFGRDLLDDLKSELTGKFEKLIVALMKPSRLYDAYELKHALKGAGTNEKVLTEIIASRTPEELRAIKQVYEEEYGSSLEDDVVGDTSGYYQRMLVVLLQANRDPDAGIDEAQVEQDAQALFQAGELKWGTDEEKFITIFGTRSVSHLRKVFDKYMTISGFQIEETIDRETSGNLEQLLLAVVKSIRSIPAYLAETLYYAMKGAGTDDHTLIRVMVSRSEIDLFNIRKEFRKNFATSLYSMIKGDTSGDYKKALLLLCGEDD
modifications: phycoerythrin label
notes: phycoerythrin labeled annexin V, cell surface marker of apoptosis
For the molecule B1, the “% Killing” value in the assay with Jurkat cells (co-incubation 1 hr) came out at 65.6%; in the assay with Jurkat cells (co-incubation 1 hr, listed as phycoerythine (PE) labeled annexin V), 65.5%.

The values above are taken from patent publication US20090263830A1, “VISUALIZATION AND QUANTITIATION OF CELLULAR CYTOTOXICITY USING CELL-PERMEABLE FLUOROGENIC PROTEASE SUBSTRATES AND CASPASE ACTIVITY INDICATOR MARKERS” (Oncoimmunin, Inc., priority 2002, published 2009).
